The test system of one assay is H9c2. In words: cells. The assay is classed as functional, cell-based. Particulars: Rattus norvegicus, H9c2, Myocardium.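 Also: confirmatory concentration-response retest of ultra-high-throughput screening hits for modulation of myocardial damage; cell death induced by hydrogen peroxide oxidative stress; compound pretreatment for 60 min then peroxide exposure for 2 h; potency is for protecting the cells against peroxide damage rather than for killing them.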
The target of assay [1] is T1, Ubiquitin-conjugating enzyme E2 N (Homo sapiens, UniProt P61088).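 Also: Dose-response confirmation in a TR-FRET assay detecting UBC13-driven polyubiquitin chain formation, inhibition measured.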
T1 sequence (P61088 whole entry): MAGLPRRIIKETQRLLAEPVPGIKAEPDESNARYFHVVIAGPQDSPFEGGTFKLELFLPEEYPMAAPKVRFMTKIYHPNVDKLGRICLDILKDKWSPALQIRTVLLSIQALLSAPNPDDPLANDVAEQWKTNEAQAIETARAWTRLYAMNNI
Format: functional.

A short description of assay [2]: microbe, parasite or virus in culture. Format: functional. Particulars: Mycobacterium tuberculosis.
In assay [3] the target is T2, Zinc finger protein mex-5 (Caenorhabditis elegans, UniProt Q9XUB2).
T2 sequence (Q9XUB2 whole entry): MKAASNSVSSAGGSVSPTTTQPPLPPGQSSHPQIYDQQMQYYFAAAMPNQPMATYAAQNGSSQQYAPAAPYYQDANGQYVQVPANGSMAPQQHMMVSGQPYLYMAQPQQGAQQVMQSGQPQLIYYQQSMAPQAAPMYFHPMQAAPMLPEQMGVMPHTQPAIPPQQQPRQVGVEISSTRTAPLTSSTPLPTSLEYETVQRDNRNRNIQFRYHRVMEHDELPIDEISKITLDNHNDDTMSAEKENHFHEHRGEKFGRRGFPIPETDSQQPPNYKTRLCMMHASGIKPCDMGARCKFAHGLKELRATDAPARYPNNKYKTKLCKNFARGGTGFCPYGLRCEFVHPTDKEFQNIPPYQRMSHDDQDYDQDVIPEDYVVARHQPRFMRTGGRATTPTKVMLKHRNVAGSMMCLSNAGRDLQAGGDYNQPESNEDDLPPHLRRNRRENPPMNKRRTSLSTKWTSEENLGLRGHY
In words: potency of MEX-5 RNA-binding blockers – biochemical, C. elegans, fluorescence polarization, dose response (AID 1960). On the technique in general: Fluorescence polarisation rises when a labelled molecule tumbles more slowly, as on binding a larger partner.

Assay [4] concerns the target T3, RNA-binding protein pos-1 (Caenorhabditis elegans, UniProt G5EF15).
T3 sequence (G5EF15 whole entry): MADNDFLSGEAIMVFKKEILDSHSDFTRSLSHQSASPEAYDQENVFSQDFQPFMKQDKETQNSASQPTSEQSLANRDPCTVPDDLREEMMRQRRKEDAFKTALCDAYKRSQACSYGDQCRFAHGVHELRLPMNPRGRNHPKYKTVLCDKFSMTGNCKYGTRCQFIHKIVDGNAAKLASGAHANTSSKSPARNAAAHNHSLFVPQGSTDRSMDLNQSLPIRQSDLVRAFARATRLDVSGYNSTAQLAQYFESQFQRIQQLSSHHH
Description: disruptors of C. elegans POS-1 RNA interaction – biochemical, fluorescence polarization, dose response (AID 1964).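 Also: purified POS-1 fused to maltose binding protein made in E. coli; potency of compounds blocking POS-1 binding to fluorescent RNA.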

Assay [5] can be described thus: HIV-1 AD8 envelope cell-cell fusion blockers – cherry-pick, dose response (AID 652062).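 Also: luciferase signal from cell-cell fusion driven by HIV-1 clade B AD8 Env; potency is for inhibitors of fusion seen as a drop in luminescence.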 The assay is classed as functional, cell-based.
Assay [6] in a line: blockers of HIV-1 ZM109 envelope-driven cell-cell fusion – HeLa effector, CEM target cells, luciferase, cherry-pick, dose response (AID 652058).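 Also: luciferase signal from HIV-1 Env mediated cell-cell fusion of effector and target cells.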 The assay is classed as functional, cell-based.
Assay [7] is described as follows: blockers of HIV-1 envelope-mediated cell-cell fusion – cherry-pick, dose response (AID 652057). Format: functional, cell-based.
A short description of assay [8]: A Cell Based Secondary Assay To Explore Cytotoxicity of Compounds that Sensitize Mycobacterium Tuberculosis to Beta-Lactam Antibiotics. The assay is classed as functional.
The target in assay [9] is T4, Heat shock factor protein 1 (Mus musculus, UniProt P38532).
T4 sequence (P38532 whole entry): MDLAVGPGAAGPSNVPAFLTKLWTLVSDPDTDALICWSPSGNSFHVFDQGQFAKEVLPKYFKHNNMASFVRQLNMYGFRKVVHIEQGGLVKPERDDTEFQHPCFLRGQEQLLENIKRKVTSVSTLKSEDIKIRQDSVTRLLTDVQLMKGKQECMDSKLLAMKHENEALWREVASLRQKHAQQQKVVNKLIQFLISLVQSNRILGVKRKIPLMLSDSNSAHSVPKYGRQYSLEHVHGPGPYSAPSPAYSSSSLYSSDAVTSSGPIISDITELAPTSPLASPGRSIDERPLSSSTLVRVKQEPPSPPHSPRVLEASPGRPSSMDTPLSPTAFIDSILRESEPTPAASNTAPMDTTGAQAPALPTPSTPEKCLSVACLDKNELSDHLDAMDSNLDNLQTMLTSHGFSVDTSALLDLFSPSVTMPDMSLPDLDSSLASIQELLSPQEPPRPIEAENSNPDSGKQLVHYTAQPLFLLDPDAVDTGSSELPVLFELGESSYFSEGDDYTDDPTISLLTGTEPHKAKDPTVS
Description: decrease of HSF1-responsive luciferase luminescence – cell-based, NIH3T3, dose retest, confirmation (AID 2382).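 Also: NIH3T3 fibroblasts with HSF1-driven luciferase reporter stressed by proteasome inhibitor MG132; luminescence from HSF1-driven luciferase expression after 8 hours of MG132 stress.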 The assay is classed as functional.

Here are results for 26 compounds from ChEMBL document CHEMBL1201862, “PubChem BioAssay data set” (2004).

Each structure is given as a SMILES string. Activity calls are given as the source filed them.

For the compound `Oc1nc(-c2cccnc2)nc2ccccc12`, the IC50 (commonly the concentration that gives 50% inhibition) in the assay on H9c2 is 12.8 µM (active). On to `CCN1C(N(C)CCc2c[nH]c3ccccc23)=N[C@@H](c2cccc(C(F)(F)F)c2)C(C(=O)OC)=C1C`, for which the IC50 in assay [1] was > 20 µM (inactive). Moreover, the CC50 in [2] is 14.3 µM (active). As for `Cc1ccc(N/C=C/C(=O)c2sc(-c3ccccc3)nc2C)cc1`, the values for the EC50 in [3] and in [4] were > 300 µM (not active) and 46.4 µM (inconclusive), respectively.

With `C[C@H]1CN([C@@H](C)CO)C(=O)c2ccccc2-c2ccccc2CO[C@H]1CN(C)Cc1ccc(F)cc1`, the AC50 (usually the concentration at which the activity in the assay is half-maximal) is 0.857 µM (active) in [5], < 0.285 µM (active) in assay [6] and < 0.285 µM (active) in assay [7]. Take `Cn1nnnc1Sc1ncnc2scc(-c3ccccc3)c12`: the CC50 in assay [8] was 30 µM (active).

With `O=[N+]([O-])c1ccc(Nc2nc(N/N=C/c3cccc(F)c3)nc(N3CCCC3)n2)cc1`, the IC50 in the assay on H9c2 is > 79 µM (inactive). In the case of `CCOc1ccc2nc(NC(=O)C34CC5CC(CC(NC(C)=O)(C5)C3)C4)sc2c1`, the CC50 in assay [2] was > 40 µM (active). `CC(=C/c1ccc(C(C)C)cc1)/C=N/NC(=O)c1ccncc1`: the IC50 in the assay on H9c2 was > 79 µM (inactive). Turning to `CC(C)NC(=O)Nc1ccc2c(c1)C(=O)N([C@@H](C)CO)C[C@@H](C)[C@@H](CN(C)C(=O)Nc1ccc(F)cc1)OCCCC[C@@H](C)O2`, the AC50 in [5] was 3.2 µM (active); in [6], 5.56 µM (active); in assay [7], 2.79 µM (active).

With `CCOC(=O)c1c(C)[nH]c(C)c1C(=O)COC(=O)/C=C/c1ccc(OC(F)F)cc1`, the CC50 in [8] is > 40 µM (active).

For the compound `COc1ccc(-c2cc(C(F)(F)F)nc(SCC(=O)Nc3sc4c(c3C#N)CCC4)n2)cc1`, the CC50 in assay [8] is > 40 µM (active). As to `O=[N+]([O-])c1ccc(-c2nc(Nc3ccc(O)cc3)c3ccccc3n2)cc1`, the IC50 with H9c2 is > 79 µM (inactive). As for `O=C(NNC(=O)c1ccccc1O)c1ccc(S(=O)(=O)Nc2ccccc2F)cc1`, the EC50 (commonly the concentration needed to bring the measured effect to its halfway point) in assay [3] was > 300 µM (inconclusive); in assay [4] it was > 300 µM (not active). For `O=C(C1=C[C@@H](c2ccc(Br)cc2)C[C@@H](OCc2ccc(CO)cc2)O1)N1CCN(Cc2ccc3c(c2)OCO3)CC1`, the CC50 in [8] is > 40 µM (active). Take `Cc1c(C#N)c(N)nc2c3c(sc12)NC(=O)CC3c1ccc(Cl)cc1` (stereo not drawn): the half-maximal inhibitory concentration (IC50) in the assay with H9c2 was 28.2 µM (active).

For the compound `COc1ccc(NC(=S)N(Cc2cccnc2)Cc2cc3cc(OC)c(OC)cc3nc2O)cc1`, in the assay on H9c2, the IC50 is > 79 µM (inactive). For the compound `Cc1c(C(=O)NC(=S)Nc2ccccc2N2CCCC2)cccc1[N+](=O)[O-]`, the CC50 in [8] was > 40 µM (active).

Consider `CC(=O)c1ccc(-c2[nH]c3ccccc3c2CCN2C(=O)c3ccccc3C2=O)cc1`, for which the IC50 in the assay on H9c2 was > 79 µM (inactive).

In the case of `CCOc1cc(/C=N\NC(=O)c2ccc(NC(=O)C(C)(C)C)cc2)ccc1OC(=O)c1ccc(C)cc1`, the CC50 in assay [8] was > 40 µM (active). As to `O=C(Nc1cccc2cccnc12)c1ccc2sc([C@H]3C[C@H](O)[C@@H](CO)O3)nc2c1`, in the assay with H9c2, the IC50 was 11 µM (active). For the compound `COc1ccccc1-c1ccc2c(c1)O[C@H](CN(C)S(=O)(=O)c1ccccc1)[C@H](C)CN([C@H](C)CO)S2(=O)=O`, the concentration at half-maximal activity (AC50) in [6] is 51.3 µM (active); in assay [7], 23.5 µM (active). As for `Cc1ccc(C)c(S(=O)(=O)N2CCN(C(=O)Cn3[nH]c(=O)c4ccccc4c3=O)CC2)c1`, the IC50 with H9c2 is > 79 µM (inactive). With `COC(=O)c1sccc1NC(=O)c1ccc(C)s1`, the concentration for a half-maximal effect (EC50) in assay [3] and in [4] was > 300 µM (not active) throughout.

As to `CCOc1ccc2c(c1)/C(=C(\C(Cl)=C(Cl)Cl)[N+](=O)[O-])N2`, the half-maximal effective concentration (EC50) in [3] was 40.3 µM (active); in assay [4] it was 68 µM (active). With `Cc1ccc2[nH]c(O)c(N=Nc3ccccc3C)c2c1`, the EC50 in assay [3] is > 300 µM (not active); in assay [4], > 300 µM (not active); in [9], > 195 µM (not active).

`COc1ccc(-c2cc(=O)oc3cc(OC(=O)C4CCCCC4)ccc23)cc1`: the IC50 in the assay on H9c2 is 22 µM (active).
